Assay results: ChEMBL document CHEMBL4385608, “5-Aryl-1,3,4-oxadiazol-2-ylthioalkanoic Acids: A Highly Potent New Class of Inhibitors of Rho/Myocardin-Related Transcription Factor (MRTF)/Serum Response Factor (SRF)-Mediated Gene Transcription as Potential Antifibrotic Agents for Scleroderma” (J Med Chem, 2019)
Converted amounts (≈) assume the structure as drawn. The source made the active and inactive calls. No cut-off for these calls is given here.

Legend:
HEK-293T = test: Cytotoxicity against HEK293T cells assessed as reduction in cell viability up to 100 uM by WST-1 assay relative to control; type: cell-based; details: human
[1] = Inhibition of Rho/MRTF/SRF pathway (unknown origin) expressed in HEK293T cells assessed as reduction in Galpha12-stimulated MRTF-selective SRE.L promoter-driven luciferase activity after overnight incubation by luminescence assay; type: cell-based, Homo sapiens
[2] = Inhibition of Rho/MRTF/SRF pathway (unknown origin) expressed in human PC3 cells assessed as reduction in Galpha12 Q231L-stimulated MRTF-selective SRE.L promoter-driven luciferase activity after overnight incubation by luminescence assay; type: cell-based
PC-3 = test: Cytotoxicity against human PC3 cells assessed as reduction in cell viability up to 100 uM by WST-1 assay relative to control; type: cell-based
[3] = Half-life in CD-1 mouse liver microsomes at 1 uM in presence of NADPH by LC-MS/MS analysis; type: ADME, Microsome
[4] = AUC in CD-1 mouse at 10 mg/kg, iv by LC-MS/MS analysis; type: ADME, organism-based; details: in vivo
[5] = AUC in CD-1 mouse at 20 mg/kg, po by LC-MS/MS analysis; type: ADME, organism-based; details: in vivo
[6] = Thermodynamic solubility of the compound; type: physicochemical; details: read-out: Therm_solubility
[7] = Cmax in CD-1 mouse at 10 mg/kg, iv by LC-MS/MS analysis; type: ADME, organism-based; set-up: dose 10 mg/kg, route intravenous; details: in vivo
[8] = Oral bioavailability in CD-1 mouse at 20 mg/kg by LC-MS/MS analysis; type: ADME, organism-based; details: in vivo
[9] = Half-life in CD-1 mouse at 10 mg/kg, iv by LC-MS/MS analysis; type: ADME, organism-based; details: in vivo
[10] = Half-life in CD-1 mouse at 20 mg/kg, po by LC-MS/MS analysis; type: ADME, organism-based; details: in vivo
[11] = Clearance in CD-1 mouse at 10 mg/kg, iv by LC-MS/MS analysis; type: ADME, organism-based; details: in vivo
[12] = Cmax in CD-1 mouse at 20 mg/kg, po by LC-MS/MS analysis; type: ADME, organism-based; set-up: dose 20 mg/kg, route oral; details: in vivo
Homo sapiens [13] = species: Homo sapiens; test: Inhibition of Rho/MRTF/SRF pathway in human primary dermal fibroblasts assessed as reduction in LPA-stimulated CTGF mRNA expression preincubated for 72 hrs followed by LPA stimulation and measured after 1 hr by qPCR analysis
[14] = AUC in CD-1 mouse at 15 mg/kg, iv by LC-MS/MS analysis; type: ADME, organism-based; details: in vivo
[15] = AUC in CD-1 mouse at 30 mg/kg, po by LC-MS/MS analysis; type: ADME, organism-based; details: in vivo
[16] = Oral bioavailability in CD-1 mouse at 30 mg/kg by LC-MS/MS analysis; type: ADME, organism-based; details: in vivo
[17] = Cmax in CD-1 mouse at 30 mg/kg, po by LC-MS/MS analysis; type: ADME, organism-based; set-up: dose 30 mg/kg, route oral; details: in vivo
Mus musculus [18] = test: Antifibrotic activity in bleomycin-induced mouse model of dermal fibrosis assessed as decrease in hydroxyproline content administered daily via oral gavage for 14 days measured post-last dose; type: functional, organism-based
Homo sapiens [19] = species: Homo sapiens; test: Inhibition of Rho/MRTF/SRF pathway in human primary dermal fibroblasts assessed as reduction in LPA-stimulated CTGF mRNA expression preincubated for 48 hrs followed by LPA stimulation and measured after 1 hr by qPCR analysis
Mus musculus [20] = test: Antifibrotic activity in bleomycin-induced mouse model of dermal fibrosis assessed as decrease in dermal thickness administered daily via oral gavage for 14 days measured post-last dose by Masson's trichrome-staining based microscopic method; type: functional, organism-based
[21] = Clearance in CD-1 mouse at 15 mg/kg, iv by LC-MS/MS analysis; type: ADME, organism-based; details: in vivo
[22] = Half-life in CD-1 mouse at 30 mg/kg, po by LC-MS/MS analysis; type: ADME, organism-based; details: in vivo
[23] = Cmax in CD-1 mouse at 15 mg/kg, iv by LC-MS/MS analysis; type: ADME, organism-based; set-up: dose 15 mg/kg, route intravenous; details: in vivo
[24] = Half-life in CD-1 mouse at 15 mg/kg, iv by LC-MS/MS analysis; type: ADME, organism-based; details: in vivo

| SMILES | Activity (HEK-293T) | IC50 [1] | IC50 [2] | Activity (PC-3) | other results |
| --- | --- | --- | --- | --- | --- |
| O=C(O)CCCSc1nnc(-c2cc(C3CC3)ccc2Cl)o1 | < 5% | 20 nM | – | – | – |
| O=C(O)CCSc1nnc(-c2cccc(Cl)c2)o1 | – | – | 1500 nM | < 5% | – |
| Cc1cc(Cl)c(-c2nnc(SCCC(=O)O)o2)cc1C | < 5% | 0.23 nM | – | – | – |
| Cc1occc1-c1nnc(SCCC(=O)O)o1 | – | – | > 100000 nM | – | – |
| O=C(O)CCSc1nnc(-c2ccccc2Cl)o1 | – | – | 25 nM | < 5% | – |
| Cc1ccc(-c2nnc(SCCCC(=O)O)o2)c(Cl)c1 | – | – | 0.1 nM | < 5% | t1/2 [3]: 0.467 h |
| CCCc1ccc(-c2nnc(SCCCC(=O)O)o2)c(Cl)c1 | < 5% | < 0.0001 nM | – | – | – |
| O=C(O)CSCc1nnc(-c2ccc(Cl)cc2Cl)o1 | – | 11500 nM | – | – | – |
| O=C(O)CCSc1nnc(-c2ccncc2)o1 | – | – | > 100000 nM | – | – |
| COc1ccccc1-c1nnc(SCCC(=O)O)o1 | – | – | 3100 nM | < 5% | – |
| COc1ccc(-c2nnc(SCCC(=O)O)o2)cc1 | – | – | 160 nM | < 5% | – |
| O=C(O)CCCS(=O)(=O)c1nnc(-c2ccc(Cl)cc2Cl)o1 | – | > 100000 nM | – | – | – |
| O=C(O)CCSc1nc(-c2ccccc2)cc(=O)[nH]1 | – | – | > 100000 nM | – | – |
| O=C(O)CCCSc1nnc(-c2ccc(C(F)(F)F)cc2Cl)o1 | < 5% | 0.06 nM | – | – | t1/2 [3]: > 1 h |
| Cc1cccc(-c2nnc(SCCC(=O)O)o2)c1 | – | – | 180 nM | < 5% | – |
| O=C(O)CCSc1nnc(-c2cccnc2)o1 | – | – | 87000 nM | – | – |
| O=C(O)CCSc1nnc(-c2ccc(Cl)cc2)o1 | – | – | 340 nM | < 5% | – |
| c1ccc(-c2nnc(SCCC3OCCCO3)o2)cc1 | – | – | > 100000 nM | – | – |
| O=C(O)CCCSc1nnc(-c2cccc(C3CC3)c2Cl)o1 | < 5% | 0.019 nM | – | – | – |
| CCc1ccc(-c2nnc(SCCCC(=O)O)o2)c(Cl)c1 | < 5% | 0.0007 nM | – | – | – |
| CNC(=O)CCSc1nnc(-c2ccc(Cl)cc2Cl)o1 | – | – | – | < 5% | – |
| O=C(O)CCCSc1nnc(-c2ccc(-c3ccccc3)cc2Cl)o1 | < 5% | 25 nM | – | – | – |
| O=C(O)CSc1nnc(-c2ccc(Cl)cc2Cl)o1 | – | – | – | < 5% | – |
| O=C(O)CCCSc1nnc(-c2ccc(Cl)cc2Cl)o1 | < 5% | 0.84 nM | 1.8 nM | < 5% | AUC [4]: 10700 ng·h/mL; AUC [5]: 11100 ng·h/mL; solubility thermodynamic [6]: 841 µM (≈ 280 µg/mL); Cmax [7]: 35600 ng/mL; bioavailability [8]: 52%; half-life [9]: 1.4 h; half-life [10]: 1.2 h; clearance [11]: 15.5 mL/min/kg; Cmax [12]: 23200 ng/mL; t1/2 [3]: > 1 h |

| SMILES | Activity (HEK-293T) | IC50 [1] | IC50 [2] | Activity (PC-3) | other results |
| --- | --- | --- | --- | --- | --- |
| O=C(O)CCCc1nnc(-c2ccc(Cl)cc2Cl)o1 | – | > 100000 nM | – | – | – |
| Cc1cc(-c2nnc(SCCC(=O)O)o2)c(Cl)cc1Cl | < 5% | 0.32 nM | – | – | – |
| Cc1ccc(-c2nnc(SCCC(=O)O)o2)c(Cl)c1C | < 5% | 0.02 nM | – | – | – |
| COc1ccc(-c2nnc(SCCCC(=O)O)o2)c(Cl)c1 | < 5% | 2 nM | – | – | – |
| COc1ccc(-c2nnc(SCCC(=O)O)n2C)cc1 | – | – | > 100000 nM | – | – |
| O=C(O)CCCSc1nnc(-c2ccc(OC3CC3)cc2Cl)o1 | < 5% | 1.3 nM | – | – | t1/2 [3]: > 1 h |
| O=C(O)CCCCSc1nnc(-c2ccc(Cl)cc2Cl)o1 | – | – | – | < 5% | – |
| O=C(O)CCCSc1nnc(-c2ccc(Br)cc2Cl)o1 | < 5% | 0.07 nM | – | – | – |
| Cc1ccc(-c2nnc(SCCC(=O)O)o2)c(Cl)c1 | – | – | 1.5 nM | < 5% | – |
| O=C(O)CCSc1nnc(-c2ccc(Cl)cc2Cl)o1 | < 5% | 2 nM | 4 nM | < 5% | inhibition (Homo sapiens [13]): Dose-dependent effect; AUC [14]: 47400 ng·h/mL; AUC [15]: 63200 ng·h/mL; bioavailability [16]: 67%; Cmax [17]: 34000 ng/mL; solubility thermodynamic [6]: 682 µM (≈ 218 µg/mL); Activity (Mus musculus [18]): Dose-dependent effect; inhibition (Homo sapiens [19]): inactive; Activity (Mus musculus [20]): Dose-dependent effect; clearance [21]: 5.3 mL/min/kg; half-life [22]: 2 h; Cmax [23]: 88600 ng/mL; t1/2 [24]: 2 h; t1/2 [3]: > 1 h |
| O=C(O)CCSc1nc2ccccc2n1Cc1ccccc1 | – | – | > 100000 nM | – | – |
| COc1cccc(-c2nnc(SCCC(=O)O)o2)c1 | – | – | 3600 nM | < 5% | – |
| CC(C)c1ccc(-c2nnc(SCCCC(=O)O)o2)c(Cl)c1 | < 5% | 0.0007 nM | – | – | – |
| COc1ccc(-c2nnc(SCCC(=O)O)o2)c(Cl)c1 | – | – | 2.6 nM | < 5% | – |
| CCOC(=O)CCSc1nnc(-c2ccc(Cl)cc2Cl)o1 | – | – | 2.6 nM | < 5% | – |
| Cc1ccc(-c2nnc(SCCC(=O)O)o2)cc1 | – | – | 34 nM | < 5% | – |
| O=C(O)CCCSc1nnc(-c2ccc(OC3COC3)cc2Cl)o1 | < 5% | 370 nM | – | – | – |
| O=C(O)CCCSc1nnc(-c2ccccc2C(F)(F)F)o1 | < 5% | 10000 nM | – | – | – |
| Cc1ccccc1-c1nnc(SCCC(=O)O)o1 | – | – | 6300 nM | < 5% | – |
| O=C(O)CCCSc1nnc(-c2ccc(C(F)(F)F)cc2)o1 | < 5% | 46 nM | – | – | – |
| O=C(O)CCCOc1nnc(-c2ccc(Cl)cc2Cl)o1 | – | > 100000 nM | – | – | – |
| O=C(O)CCSc1nnc(-c2ccccc2)o1 | – | – | 3500 nM | < 5% | – |
| CC(C)(F)c1ccc(-c2nnc(SCCCC(=O)O)o2)c(Cl)c1 | < 5% | 0.5 nM | – | – | – |
